In patent US9757424B2, “Compositions and methods of treating gliomas” (BioMed Valley Discoveries, Inc., priority 2011, dated 2017):
Values joined by “and” are separate entries in the source; they are usually repeats but may differ in a detail not shown here. Identical values can stand only once. Like-named read-outs stand apart in the source and are kept apart here.

What was measured:
[1] = tested on: U87MG human glioblastomas; test: U87MG human glioblastoma xenograft in nude mice, tumor growth inhibition Day 22 (Example 1)
Description: Each test mouse received a U87MG tumor fragment of the size 1 mm^3. […] Body weight and tumor size were monitored.
It was administered at either 5 mg/kg orally (p.o.) per day or 100 mg/kg (p.o.) per day, once daily from day 1 to day 5 of the treatment (qd×5). Candesartan in 0.5% carboxymethyl cellulose was dissolved in deionized water and administered intraperitoneally (i.p.) at the dose of 10 mg/kg once daily from day 1 to day 21 (qd×21).

[2] = tested on: U87MG glioma human tumor cell line
Description: Compounds are assessed for combination efficacy in a tumor fragment xenograft model generated by serial passage of a commonly available U87MG glioma human tumor cell line. Experimental cohorts are derived by seeding 8-12 week old, female HRLN nu/nu mice with 1 mm^3 sub-fragments of tumors maintained through serial passage in living xenografts. […] Experimental compounds are dosed once daily, in a dose volume less than or equal to 10 mL/kg, in varying vehicle resuspensions and varied routes (see table 7 below). All animals are assessed periodically for body weight, as well as tumor burden using standard protocols with mechanical calipers.
Experimental compounds are scored for efficacy using various data analyses, including manual growth curve inspection, comparison of mean time-to-tumor burden (analogous to C/T analysis), and time-to-event survival analysis by tumor burden.

[3] = tested on: U87MG human glioblastoma xenografts
Description: An untreated group served as the control group for efficacy analysis. Dosing was initiated on Day 1, except where indicated otherwise, and tumors were measured twice each week until the study was ended on Day 46. Animals were monitored individually and each mouse was euthanized for endpoint when its tumor attained a volume of 2000 mm^3 (about 2 grams) or on the final day (Day 46), whichever came first.
Treatment response was determined from an analysis of percent tumor growth delay (% TGD), defined as the percent increase in the median time to endpoint (TTE) in treated versus control mice; by logrank significance of differences in survival among treatment groups; and by regression responses. Plots of group mean tumor growth were also considered. Treatment tolerability was assessed by body weight measurements and frequent observation for clinical symptoms of treatment-related side effects.
Xenografts were initiated with U87MG human glioblastomas maintained at Piedmont by serial subcutaneous transplantation in athymic nude mice. Each test mouse received a U87MG tumor fragment (1 mm^3) implanted subcutaneously in the right flank, and the growth of tumors was monitored as the average size approached the target range of 80 to 120 mm^3. […] Tumor volume was calculated using the formula: Tumor Volume (mm^3)=w^2×l where w=width and l=length in mm of a U87MG tumor. Tumor weight may be estimated with the assumption that 1 mg is equivalent to 1 mm^3 of tumor volume.
On Day 1 of the study, mice were sorted into six groups each consisting of ten mice, and dosing was initiated according to the treatment plan summarized in Table 1. Group 1 mice were not treated and served as controls for calculation of % TGD. […] All doses were scaled to the body weights of the individual animals.
Tumors were measured twice each week using calipers. Animals were monitored individually, and each mouse was euthanized when its tumor reached the endpoint size of 2000 mm^3 or at the conclusion of the study (Day 46), whichever came first.
Animals were monitored for regression responses. Treatment may cause partial regression (PR) or complete regression (CR) of the tumor in an animal. In a PR response, the tumor volume is 50% or less of its Day 1 volume for three consecutive measurements during the course of the study, and equal to or greater than 13.5 mm^3 for one or more of these three measurements. In a CR response, the tumor volume is less than 13.5 mm^3 for three consecutive measurements during the course of the study. An animal with a CR response at the termination of a study is additionally classified as a tumor-free survivor (TFS).
Animals were weighed daily on Days 1-5, and then twice weekly until the study was completed. […] Acceptable toxicity was defined as a group mean body-weight loss of less than 20% during the study and not more than one treatment-related (TR) death among ten treated animals. Any dosing regimen that results in greater toxicity is considered above the maximum tolerated dose (MTD). […] A death is classified as NTR if there is no evidence that death was related to treatment side effects. NTR deaths may be further characterized based on cause of death. A death may be classified as NTRa if it resulted from an accident or human error. […] A death may be classified as NTRu if the cause of death is unknown and there is no available evidence of death related to treatment side effects, metastasis, accident or human error, although death due to treatment side effects cannot be excluded.

U87MG tumor fragments = test: animal or person; conditions: for Regression CR (complete regression) / Regression PR (partial regression): number of animals
Description: HRLN female nu/nu mice were seeded with 1 mm^3 U87MG tumor fragments subcutaneously in the flank. Final caliper and body weight measurements were taken on the last day of the study.
All animals were assessed periodically for body weight, as well as tumor burden, using standard protocols with mechanical calipers. […] Dosing was stopped for any group with two measurements of mean body weight loss of greater than 20%. The group was not euthanized, and recovery was allowed. Within a group with greater than 20% weight loss, individuals reaching the individual body weight loss endpoint were euthanized. If the group body weight loss was recovered, dosing may resume. […] Dosing was then resumed with the candidate agent at half the original dose. Animals were monitored as a group. The endpoint of the experiment was a mean tumor weight in control group (or group 1) of 2000 mm^3 or 60 days, whichever comes first. When the endpoint was reached, all the animals were euthanized.

[4] = tested on: U87MG human glioblastoma xenografts; test: U87MG human glioblastoma xenograft, tumor growth delay, 49-day study (Example 2);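 further: female athymic nude mice with subcutaneous tumors, groups of ten, tumors measured twice weekly, endpoint at 2000 mm^3 tumor volume or Day 49, treated compared with control mice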
Description: The experiment consisted of groups (n=10) of female athymic nude mice bearing subcutaneous U87MG xenografts (75-144 mm^3) on Day 1. Candesartan was evaluated as monotherapies at dosages of 1, 5, 10 and 50 mg/kg administered intraperitoneally (i.p.) on a once daily for twenty-one days (qd×21) schedule. […] Dosing was initiated on Day 1, and tumors were measured twice each week until the study was ended on Day 49. Animals were monitored individually and each mouse was euthanized for endpoint when its tumor attained a volume of 2000 mm^3 (about 2 grams) or on the final day (Day 49), whichever came first. Tumor samples were collected at endpoint, and histopathology analyses were performed.
The time to endpoint (TTE) was calculated for each mouse. Treatment outcome was determined from percent tumor growth delay (% TGD), defined as the percent increase in median TTE of treated versus control mice, with differences in the TTE values between groups deemed statistically significant at P 0.05 using logrank survival analysis. Animals were also monitored for partial regression (PR) and complete regression (CR) responses. Treatment tolerability was assessed by body weight measurements and frequent observation for signs of treatment-related (TR) toxicity.
Treatment response was determined from an analysis of percent tumor growth delay (% TGD), defined as the percent increase in the median time to endpoint (TTE) in treated versus control mice; by logrank significance of differences in survival among treatment groups; and by regression responses. Plots of group mean tumor growth were also considered. Treatment tolerability was assessed by body weight measurements and frequent observation for clinical symptoms of treatment-related (TR) side effects.
Xenografts were initiated with U87MG human glioblastomas (Piedmont Research Center, Morrisville, N.C.) by serial subcutaneous transplantation in athymic nude mice. Each test mouse received a U87MG tumor fragment (1 mm^3) implanted subcutaneously in the right flank, and the growth of tumors was monitored as the average size approached the target range of 80 to 120 mm^3. […] Tumor volume was calculated using the formula: Tumor Volume (mm^3)=w^2×l/2 where w=width and l=length in mm of a U87MG tumor. Tumor weight may be estimated with the assumption that 1 mg is equivalent to 1 mm^3 of tumor volume. Therapeutic Agents
Doses of valsartan and candesartan were each formulated weekly, and were stored at 4° C. Valsartan dosing solutions were formulated at concentrations of 15 and 3 mg/mL to yield the desired 150 and 30 mg/kg dosages, respectively, in a dosing volume of 0.2 mL per 20 grams body weight (10 mL/kg). The required amount of valsartan powder for the 15 mg/mL solution was suspended in sterile saline, then dissolved with 0.1 N NaOH and pH adjusted to 7.4 with 0.1 N HCl. The 3 mg/mL valsartan dosing solution was prepared by diluting an aliquot of the 15 mg/mL valsartan solution with sterile saline. Candesartan doses were formulated in 0.5% carboxymethyl cellulose (CMC) in deionized water at concentrations of 5, 1, 0.5 and 0.1 mg/mL to yield the desired 50, 10, 5 and 1 mg/kg dosages, respectively, in a dosing volume of 10 mL/kg.
Each test agent was administered intraperitoneally (i.p.) once daily for twenty-one days (qd×21), unless otherwise indicated.
Group 1 was not treated and served as the control group for calculation of % TGD. […] Groups 4-7 received candesartan at 50, 10, 5 or 1 mg/kg, respectively. […] All doses were scaled to the body weights of the individual animals.
Tumors were measured twice each week using calipers.

[5] = temozolomide 100 mg/kg p.o. qdx5
[6] = Day 1, temozolomide 100 mg/kg p.o. qdx5
[7] = Day 4, temozolomide 100 mg/kg p.o. qdx5
[8] = Day 7, temozolomide 100 mg/kg p.o. qdx5
[9] = Day 11, temozolomide 100 mg/kg p.o. qdx5
[10] = Day 14, temozolomide 100 mg/kg p.o. qdx5
[11] = Day 18, temozolomide 100 mg/kg p.o. qdx5
[12] = Day 21, temozolomide 100 mg/kg p.o. qdx5
[13] = Day 25, temozolomide 100 mg/kg p.o. qdx5
[14] = Day 28, temozolomide 100 mg/kg p.o. qdx5
[15] = temozolomide 100 mg/kg po qd x 5
[16] = Group 2: temozolomide 5 mg/kg po qd x 5
[17] = Group 6: temozolomide 100 mg/kg po qd x 5
[18] = Group 1: temozolomide 5 po qd x 5 alone
[19] = Group 1: temozolomide 5 po qd x 5 alone, n=10
[20] = Group 19: temozolomide 100 po qd x 5 alone
[21] = Group 19: temozolomide 100 po qd x 5 alone, n=8
[22] = Group 2: temozolomide 100 mg/kg po qd x 5
[23] = Group 3: temozolomide 5 mg/kg po qd x 5

Cn1nnc2c(C(N)=O)ncn2c1=O [Temozolomide, temozolomide]
MTV (n) Day 22 (mean tumor volume) ([1]; temozolomide 5 mg/kg p.o. qdx5): 825 mm^3
No. of CR ([1]; temozolomide 5 mg/kg p.o. qdx5): 0
No. of NTR ([1]; temozolomide 5 mg/kg p.o. qdx5): 0
No. of PR ([1]; temozolomide 5 mg/kg p.o. qdx5): 0
No. of TR ([1]; temozolomide 5 mg/kg p.o. qdx5): 0
MTV (n) Day 22 (mean tumor volume) ([1]; temozolomide 5 mg/kg p.o. qdx5, listed as temozolomide): 825.1 ± 95.03 N = 115 mm^3
No. of CR [1, 5]: 0
No. of NTR [1, 5]: 0
No. of PR [1, 5]: 1
No. of TR [1, 5]: 0
% TGI ([1]; temozolomide 100 mg/kg p.o. qdx5, Day 22, compared to temozolomide at 5 mg/kg): 88%
TV, group Mean ([2]; Day 1, temozolomide 5 mg/kg po qd x 5): 111.2 mm^3
TV, group Mean [2, 6]: 110.7 mm^3
TV, individual mice [2, 6]: 88 mm^3 and 108 mm^3
TV, group Mean ([2]; Day 4, temozolomide 5 mg/kg po qd x 5): 222.2 mm^3
TV, group Mean [2, 7]: 182.8 mm^3
TV, individual mice [2, 7]: 144 mm^3 and 172 mm^3
TV, group Mean ([2]; Day 7, temozolomide 5 mg/kg po qd x 5): 439.1 mm^3
TV, group Mean [2, 8]: 185 mm^3
TV, individual mice [2, 8]: 144 mm^3 and 196 mm^3
TV, group Mean ([2]; Day 11, temozolomide 5 mg/kg po qd x 5): 599.1 mm^3
TV, group Mean [2, 9]: 215.2 mm^3
TV, individual mice [2, 9]: 100 mm^3 and 256 mm^3
TV, group Mean ([2]; Day 14, temozolomide 5 mg/kg po qd x 5): 720.4 mm^3
TV, group Mean [2, 10]: 221.5 mm^3
TV, individual mice [2, 10]: 144 mm^3
TV, group Mean ([2]; Day 18, temozolomide 5 mg/kg po qd x 5): 852.1 mm^3
TV, group Mean [2, 11]: 140.6 mm^3
TV, individual mice [2, 11]: 88 mm^3
TV, group Mean ([2]; Day 21, temozolomide 5 mg/kg po qd x 5): 1058.6 mm^3
TV, group Mean [2, 12]: 99.1 mm^3
TV, individual mice [2, 12]: 75 mm^3
TV, group Mean ([2]; Day 25, temozolomide 5 mg/kg po qd x 5): 1795.6 mm^3
TV, group Mean [2, 13]: 98.4 mm^3
TV, individual mice [2, 13]: 88 mm^3
TV, group Mean ([2]; Day 28, temozolomide 5 mg/kg po qd x 5): 1890.8 mm^3
TV, group Mean [2, 14]: 95 mm^3
TV, individual mice [2, 14]: 144 mm^3
Deaths NTR ([2]; temozolomide 5 mg/kg po qd x 5): 0
Deaths TR ([2]; temozolomide 5 mg/kg po qd x 5): 0
MTV (n) Day 25 (median tumor volume) ([2]; temozolomide 5 mg/kg po qd x 5): 1180 mm^3
Regressions CR ([2]; temozolomide 5 mg/kg po qd x 5): 0
Regressions PR ([2]; temozolomide 5 mg/kg po qd x 5): 0
Deaths NTR [2, 15]: 0
Deaths TR [2, 15]: 0
MTV (n) Day 25 (median tumor volume) [2, 15]: 88 mm^3
Regressions CR [2, 15]: 0
Regressions PR [2, 15]: 0
% TGI ([2]; temozolomide 100 mg/kg po qd x 5, Day 25, compared to temozolomide 5 mg/kg group): 94%
Median TTE [3]: 42.0 days
% TGD (vs Group 1) [3, 16]: 152%
Deaths NTR [3, 16]: 0
Deaths TR [3, 16]: 0
Median TTE [3, 16]: 28.7 days
Regressions CR [3, 16]: 0
Regressions PR [3, 16]: 0
Regressions TFS [3, 16]: 0
T − C (TGD vs Group 1) [3, 16]: 17.3 days
% TGD (vs Group 1) [3, 17]: 268%
Deaths NTR [3, 17]: 0
Deaths TR [3, 17]: 0
Median TTE [3, 17]: 42 days
Regressions CR [3, 17]: 1
Regressions PR [3, 17]: 0
Regressions TFS [3, 17]: 1
T − C (TGD vs Group 1) [3, 17]: 30.6 days
MTV (n) Day 46 (median tumor volume) ([3]; Group 6: temozolomide 100 mg/kg po qd x 5, excludes animals attaining tumor volume endpoint): 0 (1) mm3
Deaths NTR (non-treatment-related death) (U87MG tumor fragments; [18]): 0
Deaths TR (treatment-related death) (U87MG tumor fragments; [18]): 0
MTV(n) Day 29 (median tumor volume) (U87MG tumor fragments; [18]): 410 (10) mm^3
Regression CR (complete regression) (U87MG tumor fragments; [19]): 1
Regression PR (partial regression) (U87MG tumor fragments; [19]): 0
Deaths NTR (non-treatment-related death) (U87MG tumor fragments; [20]): 0
Deaths TR (treatment-related death) (U87MG tumor fragments; [20]): 0
Mean BW Nadir (lowest group mean body weight, as % change from Day 1) (U87MG tumor fragments; [20]): −2.5%
MTV(n) Day 29 (median tumor volume) (U87MG tumor fragments; [20]): 10 (8) mm^3
Regression CR (complete regression) (U87MG tumor fragments; [21]): 7
Regression PR (partial regression) (U87MG tumor fragments; [21]): 1
inhibition in vivo at 100 mg/kg (U87MG tumor fragments; Mus musculus, U-87 MG, po, 864 h, read-out: % TGI (percent tumor growth inhibition, compared to Group 1)): 98%
Mean BW Nadir, day of nadir (U87MG tumor fragments; mouse, in vivo, po): Day 8
% TGD (vs Group 1) [4, 22]: 276%
Deaths NTR [4, 22]: 0
Deaths TR [4, 22]: 0
MTV (n) Day 49 [4, 22]: 0 (2) mm^3
Median TTE [4, 22]: 43.6 days
Regressions CR [4, 22]: 2
Regressions PR [4, 22]: 3
Regressions TFS [4, 22]: 2
T − C (TGD vs Group 1) [4, 22]: 32.0 days
% TGD (vs Group 1) [4, 23]: 93%
Deaths NTR [4, 23]: 0
Deaths TR [4, 23]: 0
Median TTE [4, 23]: 22.4 days
Regressions CR [4, 23]: 0
Regressions PR [4, 23]: 0
Regressions TFS [4, 23]: 0
T − C (TGD vs Group 1) [4, 23]: 10.8 days
